Legend:
CD8+ T cells = experiment: In vitro T-cell priming with aAPCs loaded with peptide/MHC complexes and anti-CD28 antibody, pMHC multimer readout; assay type: cell-based, human; conditions: HLA-A*02 restricted peptides; positive wells among evaluable; healthy donors
From the text: In order to obtain information regarding the immunogenicity of the TUMAPs of the present invention, the inventors performed investigations using an in vitro T-cell priming assay based on repeated stimulations of CD8+ T cells with artificial antigen presenting cells (aAPCs) loaded with peptide/MHC complexes and anti-CD28 antibody.
In order to perform in vitro stimulations by artificial antigen presenting cells loaded with peptide-MHC complex (pMHC) and anti-CD28 antibody, the inventors first isolated CD8+ T cells from fresh HLA-A*02 leukapheresis products via positive selection using CD8 microbeads (Miltenyi Biotec, Bergisch-Gladbach, Germany) of healthy donors obtained from the University clinics Mannheim, Germany, after informed consent.
PBMCs and isolated CD8+ lymphocytes were incubated in T-cell medium (TCM) until use consisting of RPMI-Glutamax (Invitrogen, Karlsruhe, Germany) supplemented with 10% heat inactivated human AB serum (PAN-Biotech, Aidenbach, Germany), 100 U/ml Penicillin/100 μg/ml Streptomycin (Cambrex, Cologne, Germany), 1 mM sodium pyruvate (CC Pro, Oberdorla, Germany), 20 μg/ml Gentamycin (Cambrex). 2.5 ng/ml IL-7 (PromoCell, Heidelberg, Germany) and 10 U/ml IL-2 (Novartis Pharma, Nürnberg, Germany) were also added to the TCM at this step.
Generation of pMHC/anti-CD28 coated beads, T-cell stimulations and readout was performed in a highly defined in vitro system using four different pMHC molecules per stimulation condition and 8 different pMHC molecules per readout condition.
The purified co-stimulatory mouse IgG2a anti human CD28 Ab 9.3 (Jung et al., 1987) was chemically biotinylated using Sulfo-N-hydroxysuccinimidobiotin as recommended by the manufacturer (Perbio, Bonn, Germany). Beads used were 5.6 μm diameter streptavidin coated polystyrene particles (Bangs Laboratories, Illinois, USA).
800.000 beads/200 μl were coated in 96-well plates in the presence of 4×12.5 ng different biotin-pMHC, washed and 600 ng biotin anti-CD28 were added subsequently in a volume of 200 μl. Stimulations were initiated in 96-well plates by co-incubating 1×10^6 CD8+ T cells with 2×10^5 washed coated beads in 200 μl TCM supplemented with 5 ng/ml IL-12 (PromoCell) for 3 days at 37° C. Half of the medium was then exchanged by fresh TCM supplemented with 80 U/ml IL-2 and incubating was continued for 4 days at 37° C.
This stimulation cycle was performed for a total of three times. For the pMHC multimer readout using 8 different pMHC molecules per condition, a two-dimensional combinatorial coding approach was used as previously described (Andersen et al., 2012) with minor modifications encompassing coupling to 5 different fluorochromes. Finally, multimeric analyses were performed by staining the cells with Live/dead near IR dye (Invitrogen, Karlsruhe, Germany), CD8-FITC antibody clone SK1 (BD, Heidelberg, Germany) and fluorescent pMHC multimers. For analysis, a BD LSRII SORP cytometer equipped with appropriate lasers and filters was used. Peptide specific cells were calculated as percentage of total CD8+ cells. Evaluation of multimeric analysis was done using the FlowJo software (Tree Star, Oregon, USA). In vitro priming of specific multimer+ CD8+ lymphocytes was detected by comparing to negative control stimulations.

HLA-A*02:01 = HLA-A*02:01 (Homo sapiens, UniProt P04439, D140Y/D185E/D98H/E176V/E277Q/G131W/G231S/I119V/I121R/I166T/I218V/L300P/L318F/N151K/N90K/P208A/P217A/Q86G/Q94H/R138H/R169H/T345S); experiment: MHC binding assay: UV-ligand exchange with β2m ELISA; conditions: binding to HLA-A*02:01
From the text: Candidate peptides for T cell based therapies according to the present invention were further tested for their MHC binding capacity (affinity). The individual peptide-MHC complexes were produced by UV-ligand exchange, where a UV-sensitive peptide is cleaved upon UV-irradiation, and exchanged with the peptide of interest as analyzed. Only peptide candidates that can effectively bind and stabilize the peptide-receptive MHC molecules prevent dissociation of the MHC complexes. To determine the yield of the exchange reaction, an ELISA was performed based on the detection of the light chain (β2m) of stabilized MHC complexes. The assay was performed as generally described in Rodenko et al. (Rodenko et al., 2006).
96 well MAXISorp plates (NUNC) were coated over night with 2 ug/ml streptavidin in PBS at room temperature, washed 4× and blocked for 1 h at 37° C. in 2% BSA containing blocking buffer. Refolded HLA-A*02:01/MLA-001 monomers served as standards, covering the range of 15-500 ng/ml. Peptide-MHC monomers of the UV-exchange reaction were diluted 100-fold in blocking buffer. Samples were incubated for 1 h at 37° C., washed four times, incubated with 2 ug/ml HRP conjugated anti-β2m for 1 h at 37° C., washed again and detected with TMB solution that is stopped with […]. Absorption was measured at 450 nm. Candidate peptides that show a high exchange yield (preferably higher than 50%, most preferred higher than 75%) are generally preferred for a generation and production of antibodies or fragments thereof, and/or T cell receptors or fragments thereof, as they show sufficient avidity to the MHC molecules and prevent dissociation of the MHC complexes.

## ALAGSSPQV (listed as Homo sapiens) [SEQ ID NO: 2]
CD8+ T cells
  Wells positive [%] (in vitro immunogenicity): “++” (20%-49% = ++)
HLA-A*02:01
  Peptide Exchange (MHC class I binding score, peptide exchange yield): “+++” (≥50 = +++)
